These results are taken from EP1210346B1, “NEW ACTIVE MARINE ALKALOIDS” (Instituto Biomar S.A., priority 1999, dated 2001).

Data set [1] relates to P-388 (suspension culture of a lymphoid neoplasm from DBA/2 mouse). Description: Antitumour screening, growth inhibition of P-388 cells (adapted Bergeron method). Type of data set: cell-based. Particulars: P388, 72 h, three days of incubation at 37°C, approximate IC50, duplicate. The method, then:
(§1) Cells were maintained in logarithmic phase of growth in Eagle's Minimum Essential Medium, with Earle's Balanced Salts, with 2.0 mM L-glutamine, with non-essential amino acids, without sodium bicarbonate (EMEM/neaa); supplemented with 10% Fetal Calf Serum (FCS), 10^-2 M sodium bicarbonate and 0.1 g/l penicillin-G + streptomycin sulfate.
(§2) A screening procedure has been carried out to determine and compare the antitumour activity of these compounds, using an adapted form of the method described by Bergeron et al (Raymond J Bergeron, Paul F Cavanaugh, Jr, Steven J Kline, Robert G Hughes, Jr, Gary T Elliot and Carl W Porter. Antineoplastic and antiherpetic activity of spermidine catecholamide iron chelators. Biochem. Bioph. Res. Comm. 1984, 121, 848-854). The antitumour cells employed were P-388 (suspension culture of a lymphoid neoplasm from DBA/2 mouse), A-549 (monolayer culture of a human lung carcinoma), HT-29 (monolayer culture of a human colon carcinoma) and MEL-28 (monolayer culture of a human melanoma).
P-388 cells were seeded into 16 mm wells at 1 x 10^4 cells per well in 1 ml aliquots of MEM SFCS containing the indicated concentration of drug. A separate set of cultures without drug was seeded as control growth to ensure that cells remained in exponential phase of growth. All determinations were carried out in duplicate. […]

The subject of data set [2] is A-549 (monolayer culture of a human lung carcinoma). The data set is described as follows: Antitumour screening, growth inhibition of A-549 cells (adapted Bergeron method, Crystal Violet staining). The note with it: A549, 72 h, three days of incubation at 37°C, approximate IC50, duplicate. Format: cell-based. The protocol: as §1, §2
(§3) A-549, HT-29 and MEL-28 cells were seeded into 16 mm wells at 2 x 10^4 cells per well in 1 ml aliquots of MEM 10FCS containing the indicated concentration of drug. […] An approximately IC50 was determined by comparing the growth in wells with drug to the growth in wells control.

The subject of data set [3] is HT-29 (monolayer culture of a human colon carcinoma). The data set is described as follows: Antitumour screening, growth inhibition of HT-29 cells (adapted Bergeron method, Crystal Violet staining). Type of data set: cell-based. Particulars: 72 h, three days of incubation at 37°C, approximate IC50, duplicate. The method, then:
as §1, §2, §3

Data set [4] has as its system MEL-28 (monolayer culture of a human melanoma). Description: Antitumour screening, growth inhibition of MEL-28 cells (adapted Bergeron method, Crystal Violet staining). Type of data set: cell-based. The note with it: SK-MEL-28, 72 h, three days of incubation at 37°C, approximate IC50, duplicate. The method, then: as §1, §2, §3
Data set [5] relates to Gram-positive bacteria (Staphylococcus and others). Description: Activity against Gram-positive bacteria. Format: cell-based.
Data set [6] is described as follows: Stability in acid and basic media.

SMILES strings stand for the structures.

Consider `COC1=C(C)C(=O)C2=C(C1=O)C1C3CC4=C(C(=O)C(OC)=C(C)C4=O)C(COC(C)=O)N3C(O)C(C2)N1C` (stereo not drawn) [Jorumycin], for which the IC50 in data set [1], in data set [2], in data set [3] and in data set [4] was 20 nM in each case. Moreover, the “activity against Gram-positive bacteria” value in data set [5] is recorded as “showed also activity”. Besides, the stability result in data set [6] was “highly unstable”.
